Tests used:
[1] = system: T. cruzi amastigote (Td Tomato-modified) in Vero cells; test: In vitro IC50 measurement of T. cruzi amastigote killing using Td Tomato-modified T. cruzi; type: cell-based; conditions: Trypanosoma cruzi, 72 h, fluorescence, read-out: IC50: I Org. amastigote Growth T. cruzi 3 d
Procedure: Example 254. In Vitro IC50 Measurement of T. cruzi Amastigote Killing Using Td Tomato-Modified T. cruzi
The T. cruzi parasites used in this assay were genetically modified to express Td Tomato fluorescent protein. Vero cells (African green monkey kidney epithelial cells) were harvested from continuous cultures using trypsin and added to the inner 60 wells of 96-well Greiner Bio One plates (plate catalog #655090) at 200 ul/well of […]. Cells were allowed to adhere for 1 h before infection with T. cruzi. T. cruzi for infection were harvested from previously-infected Vero cells, washed, pelleted and resuspended at 5×10^6/mL. 50 uL of parasites were added to each well containing Vero cells. Compounds were prepared from 5 mM stock concentrations in DMSO to final concentrations in wells ranging from 5 uM to 5 nM. Wells were provided for negative controls, lacking compounds. Plates were placed into a 37° C. incubator for 20 min, then a “Day 0” reading was taken on a Synergy H4 plate reader to record initial fluorescence levels, at 544 (excitation) and 612 nm (emission). 96-well plates were placed in Tupperware containers with wet paper towels and incubated at 37° C. incubator for 72 h. After 72 h plates were reread (Day 3 reading) and data analyzed using Excel and/or Graphpad software. Day 0 fluorescence was subtracted from Day 3 to remove input parasite fluorescence. Growth curves are generated and 50% and 90% inhibitory concentrations are determined by nonlinear regression analysis.

[2] = system: IL3000 T. congolense (drug sensitive) strain; test: In vitro Alamar Blue 72 h drug sensitivity assay for T. congolense; type: cell-based, Trypanosoma congolense; conditions: Trypanosoma congolense, 72 h, bloodstream form, 69 h + 3 h Resazurin, 34° C., read-out: IC50: I Org. Growth T. congolense 3 d
Procedure: Example 252. In Vitro Alamar Blue 72 h Drug Sensitivity Assay for T. congolense
Compounds were tested in vitro for chemotherapeutic potency against the IL3000 T. congolense (drug sensitive) strain, using the Alamar Blue assay with several modifications. Test compounds were prepared as 10 mg/mL DMSO stocks for each assay run. Compounds were assayed in at least three separate, independent test runs and an 11-point dilution curve was used to determine the IC50 values. Bloodstream form trypanosomes were supported in HMI media containing 20% bovine serum and were incubated with test compounds for 69 h at 34° C. in a humidified atmosphere containing 5% CO2. Thereafter, 10 μL of Resazurin dye (12.5 mg in 100 mL of phosphate buffered saline, Sigma-Aldrich, Buchs, Switzerland) were added for an additional 3 h. Plates were then read using a fluorescent plate reader (Spectramax, Gemini XS, Bucher Biotec, Basel, Switzerland) using an excitation wavelength of 536 nm and an emission wavelength of 588 nm. Data points were averaged to generate sigmoidal dose-response curves and IC50 values were determined using Softmax Pro 5.2 software.

| SMILES | IC50 [1] [nM] | IC50 [2] [nM] |
| --- | --- | --- |
| CC(C)[C@H](NC(=O)c1ccc2c(c1)B(O)OC2)C(=O)OCc1ccccc1 [Example 6-005, Benzyl (1-hydroxy-1,3-dihydrobenzo[c][1,2]oxaborole-6-carbonyl)-L-valinate] | 21 to 999 | 0.51 to 9.99 |
| O=C(N[C@@H](CO)C(=O)OCc1ccccc1)c1ccc2c(c1)B(O)OC2 [Example 6-007, Benzyl (1-hydroxy-1,3-dihydrobenzo[c][1,2]oxaborole-6-carbonyl)-L-serinate] | ≥ 1000 | 10 to 5000 |
| CSCC[C@H](NC(=O)c1ccc2c(c1)B(O)OC2)C(=O)OCc1ccccc1 [Example 6-008, Benzyl (1-hydroxy-1,3-dihydrobenzo[c][1,2]oxaborole-6-carbonyl)-L-methioninate] | 21 to 999 | 0.51 to 9.99 |
| O=C(N[C@@H](Cc1ccccc1)C(=O)OCc1ccccc1)c1ccc2c(c1)B(O)OC2 [Example 6-009, Benzyl (1-hydroxy-1,3-dihydrobenzo[c][1,2]oxaborole-6-carbonyl)-L-phenylalaninate] | ≥ 1000 | 0.51 to 9.99 |
| NC(=O)C[C@H](NC(=O)c1ccc2c(c1)B(O)OC2)C(=O)OCc1ccccc1 [Example 6-010, Benzyl (1-hydroxy-1,3-dihydrobenzo[c][1,2]oxaborole-6-carbonyl)-L-asparaginate] | ≥ 1000 | 10 to 5000 |
| CC(C)(C)[C@H](NC(=O)c1ccc2c(c1)B(O)OC2)C(=O)OCc1ccccc1 [Example 6-017, Benzyl (S)-2-(1-hydroxy-1,3-dihydrobenzo[c][1,2]oxaborole-6-carboxamido)-3,3-dimethylbutanoate] | ≥ 1000 | 10 to 5000 |
| CC(C)[C@H](NC(=O)c1ccc2c(c1)B(O)OC2)C(=O)O[C@H](C)c1ccccc1 [Example 6-020, (R)-1-Phenylethyl (1-hydroxy-1,3-dihydrobenzo[c][1,2]oxaborole-6-carbonyl)-L-valinate] | ≥ 1000 | 10 to 5000 |
| CC(C)[C@H](NC(=O)c1ccc2c(c1)B(O)OC2)C(=O)O[C@@H](C)c1ccccc1 [Example 6-023, (S)-1-Phenylethyl (1-hydroxy-1,3-dihydrobenzo[c][1,2]oxaborole-6-carbonyl)-L-valinate] | ≥ 1000 | 10 to 5000 |
| CC(C)[C@H](NC(=O)c1ccc2c(c1)B(O)OC2)C(=O)OCc1ccc(F)cc1 [Example 6-030, 4-Fluorobenzyl (1-hydroxy-1,3-dihydrobenzo[c][1,2]oxaborole-6-carbonyl)-L-valinate] | 21 to 999 | 0.51 to 9.99 |
| CC(C)[C@H](NC(=O)c1ccc2c(c1)B(O)OC2(C)C)C(=O)OCc1ccc(F)cc1 [Example 6-033, 4-Fluorobenzyl (1-hydroxy-3,3-dimethyl-1,3-dihydrobenzo[c][1,2]oxaborole-6-carbonyl)-L-valinate] | ≥ 1000 | 10 to 5000 |
| CC(C)[C@H](NC(=O)c1ccc2c(c1F)B(O)OC2)C(=O)OCc1ccccc1 [Example 6-035, Benzyl (7-fluoro-1-hydroxy-1,3-dihydrobenzo[c][1,2]oxaborole-6-carbonyl)-L-valinate] | ≥ 1000 | 10 to 5000 |
| CC(C)[C@H](NC(=O)c1ccc2c(c1F)B(O)OC2)C(=O)OCc1ccc(F)cc1 [Example 6-036, 4-Fluorobenzyl (7-fluoro-1-hydroxy-1,3-dihydrobenzo[c][1,2]oxaborole-6-carbonyl)-L-valinate] | 21 to 999 | 10 to 5000 |
| Cc1c(C(=O)N[C@H](C(=O)OCc2ccccc2)C(C)C)ccc2c1B(O)OC2 [Example 6-038, Benzyl (1-hydroxy-7-methyl-1,3-dihydrobenzo[c][1,2]oxaborole-6-carbonyl)-L-valinate] | ≤ 20 | < 0.5 |
| Cc1c(C(=O)N[C@H](C(=O)OCc2ccc(Cl)cc2)C(C)C)ccc2c1B(O)OC2 [Example 6-040, 4-Chlorobenzyl (1-hydroxy-7-methyl-1,3-dihydrobenzo[c][1,2]oxaborole-6-carbonyl)-L-valinate] | ≤ 20 | < 0.5 |
| Cc1c(C(=O)N[C@H](C(=O)OCc2ccc(C(F)(F)F)cc2)C(C)C)ccc2c1B(O)OC2 [Example 6-041, 4-Trifluoromethylbenzyl (1-hydroxy-7-methyl-1,3-dihydrobenzo[c][1,2]oxaborole-6-carbonyl)-L-valinate] | ≤ 20 | < 0.5 |
| Cc1c(C(=O)N[C@H](C(=O)OCc2cccc(Cl)c2)C(C)C)ccc2c1B(O)OC2 [Example 6-043, 3-Chlorobenzyl (1-hydroxy-7-methyl-1,3-dihydrobenzo[c][1,2]oxaborole-6-carbonyl)-L-valinate] | ≤ 20 | < 0.5 |
| Cc1c(C(=O)N[C@H](C(=O)OCc2ccc(C#N)cc2)C(C)C)ccc2c1B(O)OC2 [Example 6-044, 4-Cyanobenzyl (1-hydroxy-7-methyl-1,3-dihydrobenzo[c][1,2]oxaborole-6-carbonyl)-L-valinate] | ≤ 20 | < 0.5 |
| Cc1c(C(=O)N[C@H](C(=O)OCc2cccc(C(F)(F)F)c2)C(C)C)ccc2c1B(O)OC2 [Example 6-046, 3-Trifluoromethylbenzyl (1-hydroxy-7-methyl-1,3-dihydrobenzo[c][1,2]oxaborole-6-carbonyl)-L-valinate] | ≤ 20 | < 0.5 |
| Cc1c(C(=O)N[C@H](C(=O)OCc2cccc(C#N)c2)C(C)C)ccc2c1B(O)OC2 [Example 6-047, 3-Cyanobenzyl (1-hydroxy-7-methyl-1,3-dihydrobenzo[c][1,2]oxaborole-6-carbonyl)-L-valinate] | ≤ 20 | < 0.5 |
| Cc1c(C(=O)N[C@H](C(=O)OCc2cncc(N(C)C)n2)C(C)C)ccc2c1B(O)OC2 [Example 6-232, (6-(dimethylamino)pyrazin-2-yl)methyl (1-hydroxy-7-methyl-1,3-dihydrobenzo[c][1,2]oxaborole-6-carbonyl)-L-valinate] | ≤ 20 | – |
| Cc1c(C(=O)N[C@H](C(=O)OCC2(C)CCOC2)C(C)C)ccc2c1B(O)OC2 (stereo partly drawn) [Example 6-233, (3-methyltetrahydrofuran-3-yl)methyl (1-hydroxy-7-methyl-1,3-dihydrobenzo[c][1,2]oxaborole-6-carbonyl)-L-valinate] | ≤ 20 | – |
| Cc1c(C(=O)N[C@H](C(=O)OC[C@@H]2CCOC2)C(C)C)ccc2c1B(O)OC2 [Example 6-234, ((R)-tetrahydrofuran-3-yl)methyl (1-hydroxy-7-methyl-1,3-dihydrobenzo[c][1,2]oxaborole-6-carbonyl)-L-valinate] | ≤ 20 | – |
| Cc1c(C(=O)N[C@H](C(=O)OC[C@H]2CCOC2)C(C)C)ccc2c1B(O)OC2 [Example 6-235, ((S)-tetrahydrofuran-3-yl)methyl (1-hydroxy-7-methyl-1,3-dihydrobenzo[c][1,2]oxaborole-6-carbonyl)-L-valinate] | ≤ 20 | – |
| Cc1c(C(=O)N[C@H](C(=O)OCC2CCC(F)(F)CC2)C(C)(C)O)ccc2c1B(O)OC2 [Example 6-248, (4,4-difluorocyclohexyl)methyl (S)-3-hydroxy-2-(1-hydroxy-7-methyl-1,3-dihydrobenzo[c][1,2]oxaborole-6-carboxamido)-3-methylbutanoate] | 21 to 999 | – |
| Cc1c(C(=O)N[C@H](C(=O)OCC2(O)CCOC2)C(C)C)ccc2c1B(O)OC2 (stereo partly drawn) [Example 6-250, (3-hydroxytetrahydrofuran-3-yl)methyl (1-hydroxy-7-methyl-1,3-dihydrobenzo[c][1,2]oxaborole-6-carbonyl)-L-valinate] | ≥ 1000 | – |

Source: patent publication US11578087B2, “Oxaborole esters and uses thereof” (priority 2016, dated 2023)
